{"source": "patent US6187559A", "about": "“Phospholipase D gene” (Novartis AG, priority 1998, dated 2001)", "test_system": "PLD (phospholipase D)", "experiment": "Assay for PLD activity (release of 3H choline from radiolabeled PC)", "type": "biochemical", "conditions": "substrate [methyl-3H] choline dipalmitoyl PC; PLDT buffer (20 mM Tris-HCl pH 7.0, 1.0 mM EDTA, 0.05% Triton X-100), 37° C.", "protocol": "The PLD assay measured the release of ^3 H choline from radiolabeled PC (Steed et al. (1996) Biochemistry 35:5229-5237). Product was separated from substrate by partitioning into water from a chloroform:methanol extraction. ^3 H PC substrate was prepared by drying stock (in methanol) with argon and re-dissolving into minimal volumes of methanol (2-10 μl). After dilution with a buffer of 20 mM Tris-HCl, pH 7.0, 1.0 mM EDTA and 0.05% Triton X-100 (PLDT buffer) to a 5× concentration, the substrate was sonicated for 30 sec and used immediately. The assay was performed with 1.0 μM [methyl-^3 H] choline L-a-PC dipalmitoyl phosphatidylcholine (0.1 μCi/assay) and enzyme with PLDT buffer added to a final volume of 50 μl using polypropylene tubes. Since the estimated Km is greater than 1 μM, PC is limiting in this assay. Unfortunately, the solubility constraints of the lipid substrate preclude the use of higher PC concentrations. […] The radioactivity in the aqueous phase (200 μl) was counted in either a Beckman LS 3801 (Beckman Instruments Columbia Md.) or Wallac 1450 Microbeta Plus (Wallac Inc., Gaithersburg Md.) liquid scintillation counter after the addition of scintillant. […] The material was assayed using transphosphatidylation to butanol and ethanol to verify that PLD activity is being measured. […]", "data": [{"smiles": "CCCCCCCCCCCCCCCC(=O)OC[C@H](COP(=O)([O-])OCC[N+](C)(C)C)OC(=O)CCCCCCCCCCCCCCC", "note": "[PC, dipalmitoyl phosphatidylcholine]", "values": [{"measurement": "estimated Km", "value": "greater than 1 μM"}]}]}
